The target in this test is T1, human DGAT1 (Homo sapiens, UniProt O75907).
T1 construct: made in house; host or cells: Sf9 insect cells (recombinant baculovirus), membrane fraction
T1 sequence (O75907 1-488): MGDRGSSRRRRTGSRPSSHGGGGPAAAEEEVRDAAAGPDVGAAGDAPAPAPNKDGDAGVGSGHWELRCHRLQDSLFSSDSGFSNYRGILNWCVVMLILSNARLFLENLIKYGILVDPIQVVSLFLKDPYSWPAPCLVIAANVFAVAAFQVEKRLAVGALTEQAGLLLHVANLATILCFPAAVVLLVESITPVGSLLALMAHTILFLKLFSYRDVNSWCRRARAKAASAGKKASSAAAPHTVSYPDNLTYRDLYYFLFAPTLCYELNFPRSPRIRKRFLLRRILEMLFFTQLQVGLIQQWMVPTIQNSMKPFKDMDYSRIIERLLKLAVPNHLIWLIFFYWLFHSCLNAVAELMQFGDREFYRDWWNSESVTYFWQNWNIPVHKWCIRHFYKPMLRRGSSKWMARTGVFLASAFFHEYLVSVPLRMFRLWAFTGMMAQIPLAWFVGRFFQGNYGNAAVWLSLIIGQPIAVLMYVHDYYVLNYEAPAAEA
Put plainly: Human Enzyme Assay (DGAT1 inhibition). In kind it is biochemical. The note with it: human DGAT1 expressed in insect cell (sf9) membranes; 14C oleoyl coenzyme A, 30 minutes, room temperature. As for the experimental part:
The in vitro assay to identify DGAT1 inhibitors uses human DGAT1 expressed in insect cell membranes as the enzyme source (Proc. Natl. Acad. Sci. 1998, 95, 13018-13023). Briefly, sf9 cells were infected with recombinant baculovirus containing human DGAT1 coding sequences and harvested after 48 h. Cells were lysed by sonication and membranes isolated by centrifuging at 28000 rpm for 1 h at 4° C. on a 41% sucrose gradient. The membrane fraction at the interphase was collected, washed, and stored in liquid nitrogen.
DGAT1 activity was assayed by a modification of the method described by Coleman (Methods in Enzymology 1992, 209, 98-102). Compound at 1-10 μM was incubated with 0.4 μg membrane protein, 5 mM MgCl2, and 100 μM 1,2 dioleoyl-sn-glycerol in a total assay volume of 200 μl in plastic tubes. The reaction was started by adding ^14C oleoyl coenzyme A (30 μM final concentration) and incubated at room temperature for 30 minutes. The reaction was stopped by adding 1.5 mL 2-propanol:heptane:water (80:20:2). Radioactive triolein product was separated into the organic phase by adding 1 mL heptane and 0.5 mL 0.1 M carbonate buffer pH 9.5. DGAT1 activity was quantified by counting aliquots of the upper heptane layer by liquid scintillography.

The record followed here is patent US20090209602A1, “CHEMICAL COMPOUNDS” (priority 2006, published 2009).

One may read the IC50 as the concentration needed to halve the response being measured. `O=C(O)CC1CCC(c2ccc(NC(=O)c3cnc(Nc4ccccc4)o3)cc2)CC1` (stereo not shown) [Example 1, [4-(4-{[(2-Anilino-1,3-oxazol-5-yl)carbonyl]amino}phenyl)cyclohexyl]acetic acid] had a concentration for half-maximal inhibition (IC50) of 100 nM.
